The record followed here is patent US8383647B2, “Quinoline derivative” (Takeda Pharmaceutical Company Limited, priority 2009, dated 2013).

Series [1] has as its target human SLC-1 (Homo sapiens, UniProt Q99705). The series is described as follows: MCH receptor antagonistic activity (inhibitory activity, Experimental Example 1). The class given is biochemical.
The target in series [2] is rat SLC-1 (Rattus norvegicus, UniProt P97639). The series is described as above. The class given is biochemical.
rat SLC-1, sequence (P97639 whole entry): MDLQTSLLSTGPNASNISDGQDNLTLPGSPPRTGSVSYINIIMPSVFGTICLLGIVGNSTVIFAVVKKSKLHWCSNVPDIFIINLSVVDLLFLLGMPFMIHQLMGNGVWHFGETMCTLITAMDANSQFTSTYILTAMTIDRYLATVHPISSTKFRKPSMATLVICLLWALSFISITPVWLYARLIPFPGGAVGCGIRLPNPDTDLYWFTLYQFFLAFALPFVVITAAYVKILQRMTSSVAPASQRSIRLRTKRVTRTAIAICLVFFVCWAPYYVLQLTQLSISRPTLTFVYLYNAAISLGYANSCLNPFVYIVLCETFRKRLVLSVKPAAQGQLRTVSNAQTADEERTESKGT

human SLC-1, sequence (Q99705 whole entry): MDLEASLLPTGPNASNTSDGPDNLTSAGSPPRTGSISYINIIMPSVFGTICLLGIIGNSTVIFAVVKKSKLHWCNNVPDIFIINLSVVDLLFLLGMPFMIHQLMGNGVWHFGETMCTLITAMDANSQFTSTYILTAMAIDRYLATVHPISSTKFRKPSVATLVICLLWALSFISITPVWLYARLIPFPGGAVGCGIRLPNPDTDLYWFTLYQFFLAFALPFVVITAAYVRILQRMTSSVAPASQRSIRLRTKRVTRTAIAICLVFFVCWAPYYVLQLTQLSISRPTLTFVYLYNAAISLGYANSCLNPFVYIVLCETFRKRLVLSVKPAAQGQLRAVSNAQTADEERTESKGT

By melting point is commonly meant the temperature, or range, at which the solid turns liquid. The term IC50 denotes the point on the concentration scale where inhibition reaches its midpoint. High values mean lower potency, low ones higher potency. The molecule `Cc1c(NC(=O)c2ccc(OC[C@@H]3CCCO3)cc2)ccc2cc(CNCC3(C)COC3)cnc12` [Example 34, N-[8-methyl-3-({[(3-methyloxetan-3-yl)methyl]amino}methyl)quinolin-7-yl]-4-[(2S)-tetrahydrofuran-2-ylmethoxy]benzamide] yielded a melting point of 117 to 119 °C. In series [1], this molecule gave an IC50 of 5.5 nM. Moreover, in series [2], it took 6.5 nM to reach half-maximal inhibition (IC50).

`CCNCc1cnc2c(C)c(NC(=O)c3ccc(OC[C@@H]4CCCO4)cc3)ccc2c1` [Example 35, N-{3-[(ethylamino)methyl]-8-methylquinolin-7-yl}-4-[(2S)-tetrahydrofuran-2-ylmethoxy]benzamide] yielded a melting point of 149 to 151 °C. In series [1], this molecule returned an IC50 of 7.1 nM. For the same molecule, in series [2], the IC50 came to 17 nM.

`Cc1c(NC(=O)c2ccc(OC[C@@H]3CCCO3)cc2)ccc2cc(CNC3CCCC3)cnc12` [Example 36, N-{3-[(cyclopentylamino)methyl]-8-methylquinolin-7-yl}-4-[(2S)-tetrahydrofuran-2-ylmethoxy]benzamide] showed a melting point of 152 to 153 °C. Half-maximal inhibition in series [1] (IC50) was put at 1.7 nM. The molecule also had an IC50 in series [2] of 3 nM.

The molecule `Cc1c(NC(=O)c2ccc(OC[C@@H]3CCCO3)cc2)ccc2cc(CNCC3CC3)cnc12` [Example 37, N-(3-{[(cyclopropylmethyl)amino]methyl}-8-methylquinolin-7-yl)-4-[(2S)-tetrahydrofuran-2-ylmethoxy]benzamide] showed a melting point of 156 to 158 °C. Further, half-maximal inhibition in series [1] (IC50) was put at 3 nM. The same molecule had an IC50 in series [2] of 4.1 nM.

On to `Cc1c(NC(=O)c2ccc(OC[C@@H]3CCCO3)cc2)ccc2cc(CNCC(C)C)cnc12` [Example 38, N-(8-methyl-3-{[(2-methylpropyl)amino]methyl}quinolin-7-yl)-4-[(2S)-tetrahydrofuran-2-ylmethoxy]benzamide], for which the melting point was in the range of 142 to 143 °C. This molecule also displayed an IC50 in series [1] of 1.5 nM. This molecule also came in with an IC50 in series [2] of 1.7 nM.

Molecule `Cc1c(NC(=O)c2ccc(OC[C@@H]3CCCO3)cc2)ccc2cc(CNCC(C)(C)C)cnc12` [Example 39, N-(3-{[(2,2-dimethylpropyl)amino]methyl}-8-methylquinolin-7-yl)-4-[(2S)-tetrahydrofuran-2-ylmethoxy]benzamide] yielded a melting point of 114 to 116 °C. The IC50 in series [1] came to 1.8 nM. This molecule displayed an IC50 in series [2] of 2 nM.

Molecule `Cc1c(NC(=O)c2ccc(OC[C@H]3CCCO3)cc2)ccc2cc(CN[C@H]3CC[C@H](O)CC3)cnc12` [Example 40, N-(3-{[(trans-4-hydroxycyclohexyl)amino]methyl}-8-methylquinolin-7-yl)-4-[(2R)-tetrahydrofuran-2-ylmethoxy]benzamide] displayed a melting point of 182 to 183 °C. This molecule also displayed an IC50 in series [1] of 7.7 nM. In addition, half-maximal inhibition in series [2] (IC50) required 13 nM.

In turn, `CCCNCc1cnc2c(C)c(NC(=O)c3ccc(OC[C@@H]4CCCO4)cc3)ccc2c1` [Example 45, N-{8-methyl-3-[(propylamino)methyl]quinolin-7-yl}-4-[(2S)-tetrahydrofuran-2-ylmethoxy]benzamide] registered a melting point of 121 to 122 °C. This molecule gave an IC50 in series [1] of 3.1 nM. The molecule also registered an IC50 in series [2] of 5.8 nM.

`Cc1c(NC(=O)c2ccc(OC[C@@H]3CCCO3)cc2)ccc2cc(CN[C@@H]3CCCC[C@H]3O)cnc12` [Example 46, N-[3-({[(1R,2R)-2-hydroxycyclohexyl]amino}methyl)-8-methylquinolin-7-yl]-4-[(2S)-tetrahydrofuran-2-ylmethoxy]benzamide] showed a melting point of 142 to 143 °C. For the same molecule, in series [1], the IC50 was found to be 4.5 nM. In series [2], the half-inhibitory concentration (IC50) was 6.5 nM.

With `Cc1c(NC(=O)c2ccc(OC[C@@H]3CCCO3)cc2)ccc2cc(CN[C@H]3CCCC[C@@H]3O)cnc12` [Example 47, N-[3-({[(1S,2S)-2-hydroxycyclohexyl]amino}methyl)-8-methylquinolin-7-yl]-4-[(2S)-tetrahydrofuran-2-ylmethoxy]benzamide], the melting point lay within 157 to 158 °C. In series [1], this molecule showed an IC50 of 6.8 nM. Also, in series [2], the concentration for half-maximal inhibition (IC50) was determined as 7.9 nM.
